Measurements from ChEMBL document CHEMBL4813981, “Synthesis and in vitro antibacterial activity of new aminothiazole-oximepiperidone cephalosporins” (2021).

Columns and labels:
Format in all cases: functional
Enterococcus faecalis [1] = assay: Antibacterial activity against Enterococcus faecalis ATCC 51299 assessed as reduction in bacterial growth
Escherichia coli [2] = assay: Antibacterial activity against Escherichia coli ATCC 25922 assessed as reduction in bacterial growth
Escherichia coli [3] = assay: Antibacterial activity against Escherichia coli ATCC 35218 assessed as reduction in bacterial growth
Escherichia coli [4] = assay: Antibacterial activity against Escherichia coli NCTC 13353 assessed as reduction in bacterial growth
Escherichia coli [5] = assay: Antibacterial activity against Escherichia coli 15-3 overexpressing extended spectrum beta-lactamases assessed as reduction in bacterial growth
Escherichia coli [6] = assay: Antibacterial activity against Escherichia coli 15-4 overexpressing extended spectrum beta-lactamases assessed as reduction in bacterial growth
Escherichia coli [7] = assay: Antibacterial activity against Escherichia coli 15-5 overexpressing extended spectrum beta-lactamases assessed as reduction in bacterial growth
Klebsiella pneumoniae [8] = assay: Antibacterial activity against Klebsiella pneumoniae ATCC 700603 assessed as reduction in bacterial growth
Klebsiella pneumoniae [9] = assay: Antibacterial activity against Klebsiella pneumoniae ATCC BAA-1705 assessed as reduction in bacterial growth
Klebsiella pneumoniae [10] = assay: Antibacterial activity against Multidrug resistant Klebsiella pneumoniae KR 15-1 assessed as reduction in bacterial growth
Klebsiella pneumoniae [11] = assay: Antibacterial activity against Multidrug resistant Klebsiella pneumoniae KR 15-2 assessed as reduction in bacterial growth
Klebsiella pneumoniae [12] = assay: Antibacterial activity against Multidrug resistant Klebsiella pneumoniae KR 15-3 assessed as reduction in bacterial growth
Acinetobacter baumannii [13] = assay: Antibacterial activity against Acinetobacter baumannii NCTC 13304 assessed as reduction in bacterial growth
Acinetobacter baumannii [14] = assay: Antibacterial activity against Multidrug resistant Acinetobacter baumannii AR 15-2 assessed as reduction in bacterial growth
Acinetobacter baumannii [15] = assay: Antibacterial activity against Multidrug resistant Acinetobacter baumannii AR 15-3 assessed as reduction in bacterial growth
Acinetobacter baumannii [16] = assay: Antibacterial activity against Multidrug resistant Acinetobacter baumannii AR 15-4 assessed as reduction in bacterial growth
Pseudomonas aeruginosa [17] = assay: Antibacterial activity against Pseudomonas aeruginosa ATCC 27853 assessed as reduction in bacterial growth
Enterococcus faecalis [18] = assay: Antibacterial activity against Enterococcus faecalis ATCC 51299 assessed as reduction in bacterial growth in the presence of Avibactam
Escherichia coli [19] = assay: Antibacterial activity against Escherichia coli ATCC 25922 assessed as reduction in bacterial growth in the presence of Avibactam
Escherichia coli [20] = assay: Antibacterial activity against Escherichia coli ATCC 35218 assessed as reduction in bacterial growth in the presence of Avibactam
Escherichia coli [21] = assay: Antibacterial activity against Escherichia coli NCTC 13353 assessed as reduction in bacterial growth in the presence of Avibactam
Escherichia coli [22] = assay: Antibacterial activity against Escherichia coli 15-3 overexpressing extended spectrum beta-lactamases assessed as reduction in bacterial growth in the presence of Avibactam
Escherichia coli [23] = assay: Antibacterial activity against Escherichia coli 15-4 overexpressing extended spectrum beta-lactamases assessed as reduction in bacterial growth in the presence of Avibactam
Escherichia coli [24] = assay: Antibacterial activity against Escherichia coli 15-5 overexpressing extended spectrum beta-lactamases assessed as reduction in bacterial growth in the presence of Avibactam
Klebsiella pneumoniae [25] = assay: Antibacterial activity against Klebsiella pneumoniae ATCC 700603 assessed as reduction in bacterial growth in the presence of Avibactam
Klebsiella pneumoniae [26] = assay: Antibacterial activity against Klebsiella pneumoniae ATCC BAA-1705 assessed as reduction in bacterial growth in the presence of Avibactam
Klebsiella pneumoniae [27] = assay: Antibacterial activity against Multidrug resistant Klebsiella pneumoniae KR 15-1 assessed as reduction in bacterial growth in the presence of Avibactam
Klebsiella pneumoniae [28] = assay: Antibacterial activity against Multidrug resistant Klebsiella pneumoniae KR 15-2 assessed as reduction in bacterial growth in the presence of Avibactam
Klebsiella pneumoniae [29] = assay: Antibacterial activity against Multidrug resistant Klebsiella pneumoniae KR 15-3 assessed as reduction in bacterial growth in the presence of Avibactam
Acinetobacter baumannii [30] = assay: Antibacterial activity against Acinetobacter baumannii NCTC 13304 assessed as reduction in bacterial growth in the presence of Avibactam
Acinetobacter baumannii [31] = assay: Antibacterial activity against Multidrug resistant Acinetobacter baumannii AR 15-2 assessed as reduction in bacterial growth in the presence of Avibactam
Acinetobacter baumannii [32] = assay: Antibacterial activity against Multidrug resistant Acinetobacter baumannii AR 15-3 assessed as reduction in bacterial growth in the presence of Avibactam
Acinetobacter baumannii [33] = assay: Antibacterial activity against Multidrug resistant Acinetobacter baumannii AR 15-4 assessed as reduction in bacterial growth in the presence of Avibactam
Pseudomonas aeruginosa [34] = assay: Antibacterial activity against Pseudomonas aeruginosa ATCC 27853 assessed as reduction in bacterial growth in the presence of Avibactam

Measured: MIC

C/C=C/C1=C(C(=O)O)N2C(=O)[C@@H](NC(=O)/C(=N\OCc3cc(=O)c(O)cn3O)c3csc(N)n3)[C@H]2SC1
1 µg/mL: Escherichia coli [2] | Escherichia coli [3]
64 µg/mL: Klebsiella pneumoniae [8] | Klebsiella pneumoniae [9]
> 64 µg/mL: Enterococcus faecalis [1] | Escherichia coli [4] | Escherichia coli [5] | Escherichia coli [6] | Escherichia coli [7] | Klebsiella pneumoniae [10] | Klebsiella pneumoniae [11] | Klebsiella pneumoniae [12] | Acinetobacter baumannii [13] | Acinetobacter baumannii [14] | Acinetobacter baumannii [15] | Acinetobacter baumannii [16]
16 µg/mL: Pseudomonas aeruginosa [17]

COCC1=C(C(=O)O)N2C(=O)[C@@H](NC(=O)/C(=N\OCc3cc(=O)c(O)cn3O)c3csc(N)n3)[C@H]2SC1
64 µg/mL: Klebsiella pneumoniae [8]
2 µg/mL: Escherichia coli [2] | Pseudomonas aeruginosa [17]
0.25 µg/mL: Escherichia coli [3]
> 64 µg/mL: Enterococcus faecalis [1] | Escherichia coli [4] | Escherichia coli [5] | Escherichia coli [6] | Escherichia coli [7] | Klebsiella pneumoniae [9] | Klebsiella pneumoniae [10] | Klebsiella pneumoniae [11] | Klebsiella pneumoniae [12] | Acinetobacter baumannii [13] | Acinetobacter baumannii [14] | Acinetobacter baumannii [15] | Acinetobacter baumannii [16]

Nc1nc(/C(=N/OCc2cc(=O)c(O)cn2O)C(=O)N[C@@H]2C(=O)N3C(C(=O)O)=C(Cl)CS[C@H]23)cs1
16 µg/mL: Acinetobacter baumannii [31]
32 µg/mL: Acinetobacter baumannii [30]
0.5 µg/mL: Escherichia coli [3] | Escherichia coli [24]
4 µg/mL: Pseudomonas aeruginosa [17]
2 µg/mL: Escherichia coli [2] | Klebsiella pneumoniae [27]
8 µg/mL: Klebsiella pneumoniae [26] | Acinetobacter baumannii [32] | Acinetobacter baumannii [33]
0.125 µg/mL: Escherichia coli [19] | Escherichia coli [20]
1 µg/mL: Escherichia coli [21] | Escherichia coli [22] | Escherichia coli [23] | Klebsiella pneumoniae [28] | Klebsiella pneumoniae [29] | Pseudomonas aeruginosa [34]
> 64 µg/mL: all other assays above
